Measured values published in ChEMBL document CHEMBL3994576, “Targeting Alzheimer's disease by investigating previously unexplored chemical space surrounding the cholinesterase inhibitor donepezil” (Eur J Med Chem, 2017).

Assays:
[1] = target: Acetylcholinesterase (Electrophorus electricus, UniProt O42275); test: Inhibition of electric eel AChE using acetylthiocholine iodide as substrate by Ellman's method
[2] = system: SH-SY5Y; test: cells; format: ADME, cell-based; conditions: Homo sapiens, 72 h;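 further: cytotoxicity read out with an SRB assay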
[3] = clinical; conditions: human, in vivo, po
[4] = Elimination half life in human; format: ADME; conditions: read-out: beta t1/2

Acetylcholinesterase, sequence (O42275 whole entry): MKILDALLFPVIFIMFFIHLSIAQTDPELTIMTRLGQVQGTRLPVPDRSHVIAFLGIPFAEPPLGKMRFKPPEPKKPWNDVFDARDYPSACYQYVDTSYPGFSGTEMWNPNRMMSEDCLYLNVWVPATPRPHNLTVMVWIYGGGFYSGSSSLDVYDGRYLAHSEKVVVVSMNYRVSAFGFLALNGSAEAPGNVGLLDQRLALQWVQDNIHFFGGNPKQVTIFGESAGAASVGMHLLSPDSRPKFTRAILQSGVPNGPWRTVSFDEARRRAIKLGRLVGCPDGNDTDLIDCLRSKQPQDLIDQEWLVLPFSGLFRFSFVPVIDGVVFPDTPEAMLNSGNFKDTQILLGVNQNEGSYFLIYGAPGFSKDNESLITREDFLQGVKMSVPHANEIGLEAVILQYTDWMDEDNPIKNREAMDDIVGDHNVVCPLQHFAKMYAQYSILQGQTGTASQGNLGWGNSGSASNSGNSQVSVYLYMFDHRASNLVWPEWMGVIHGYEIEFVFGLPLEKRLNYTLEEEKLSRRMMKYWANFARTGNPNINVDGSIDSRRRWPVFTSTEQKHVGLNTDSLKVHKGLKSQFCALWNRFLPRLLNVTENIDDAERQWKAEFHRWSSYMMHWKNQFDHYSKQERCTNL

Row | Structure (SMILES) | IC50 [1] | IC50 [2] | bioavailability [3] | half-life [4]
1 | COc1cc2c(cc1OC)C(=O)/C(=C/C1CCN(Cc3ccccc3)CC1)C2 | 0.42 µM | 3.99 µM |  | 
2 | COc1cc2c(cc1OC)C(=O)/C(=C/C1CCCCN1Cc1ccccc1)C2 (stereo not given) | 0.75 µM |  |  | 
3 | COc1cc2c(cc1OC)C(=O)C(C[C@@H]1CCCN1Cc1ccccc1)C2 (stereo not given in full) | 3.16 µM |  |  | 
4 | COc1cc2c(cc1OC)C(=O)C(C(=O)OCC1CCN(Cc3ccccc3)C1)C2 (stereo not given) | > 10 µM |  |  | 
5 | COc1cc2c(cc1OC)C(=O)C(CC1CCCN(Cc3ccccc3)C1)C2 (stereo not given) | 0.51 µM | 66.7 µM |  | 
6 | COc1cc2c(cc1OC)C(=O)/C(=C/C1CCCN1Cc1ccccc1)C2 (stereo not given) | > 10 µM | 19 µM |  | 
7 | COc1cc2c(cc1OC)C(=O)C(CC1CCN1Cc1ccccc1)C2 (stereo not given) | > 10 µM | 58.5 µM |  | 
8 | COc1cc2c(cc1OC)C(=O)C(C(=O)OCC1CCCN(Cc3ccccc3)C1)C2 (stereo not given) | > 10 µM |  |  | 
9 | COc1cc2c(cc1OC)C(=O)C(C(=O)OCC1CCN1Cc1ccccc1)C2 (stereo not given) | > 10 µM |  |  | 
10 | COc1cc2c(cc1OC)C(=O)/C(=C/C1CN(Cc3ccccc3)C1)C2 | 0.7 µM | 1.26 µM |  | 
11 | COc1cc2c(cc1OC)C(=O)/C(=C/C1CCCN(Cc3ccccc3)C1)C2 (stereo not given) | 1.18 µM | 4.72 µM |  | 
12 | COc1cc2c(cc1OC)C(=O)C(CC1CCN(Cc3ccccc3)C1)C2 (stereo not given) | 1.74 µM |  |  | 
13 | COc1cc2c(cc1OC)C(=O)C(OC(=O)C1CCN(Cc3ccccc3)CC1)C2 (stereo not given) |  | > 100 µM |  | 
14 | COc1cc2c(cc1OC)C(=O)C(C(=O)OC1CCN(Cc3ccccc3)CC1)C2 (stereo not given) | 3.03 µM | > 100 µM |  | 
15 | COc1cc2c(cc1OC)C(=O)C(C(=O)OCC1CCCN1Cc1ccccc1)C2 (stereo not given) | > 10 µM |  |  | 
16 | COc1cc2c(cc1OC)C(=O)/C(=C/C1CCN(Cc3ccccc3)C1)C2 (stereo not given) | 0.52 µM | 6.59 µM |  | 
17 | COc1cc2c(cc1OC)C(=O)C(CC1CN(Cc3ccccc3)C1)C2 (stereo not given) | 1.13 µM | 8.01 µM |  | 
18 | COc1cc2c(cc1OC)C(=O)C(C(=O)OCC1CCCCN1Cc1ccccc1)C2 (stereo not given) | > 10 µM |  |  | 
19 | COc1cc2c(cc1OC)C(=O)C(C(=O)OCC1CN1Cc1ccccc1)C2 (stereo not given) | > 10 µM |  |  | 
20 | COc1cc2c(cc1OC)C(=O)C(CC1CCCCN1Cc1ccccc1)C2 (stereo not given) | 0.46 µM | > 100 µM |  | 
21 | COc1cc2c(cc1OC)C(=O)C(C(=O)C1CCN(Cc3ccccc3)CC1)C2 (stereo not given) | 0.66 µM | 63.9 µM |  | 
22 | COc1cc2c(cc1OC)C(=O)C(C(=O)OCC1CCN(Cc3ccccc3)CC1)C2 (stereo not given) | > 10 µM |  |  | 
23 | COc1cc2c(cc1OC)C(=O)/C(=C/C1CN1Cc1ccccc1)C2 (stereo not given) | > 10 µM |  |  | 
24 | COc1cc2c(cc1OC)C(=O)C(C(=O)OCC1CN(Cc3ccccc3)C1)C2 (stereo not given) | > 10 µM | > 100 µM |  | 
25 | COc1cc2c(cc1OC)C(=O)/C(=C/C1CCN1Cc1ccccc1)C2 (stereo not given) | > 10 µM |  |  | 
26 | COc1cc2c(cc1OC)C(=O)C(CC1CCN(Cc3ccccc3)CC1)C2 (stereo not given) [DONEPEZIL] |  | 15.5 µM | 100% | 70 to 80 h
